For one assay, the system named is A549. As to the kind of experiment: In vitro antitumor activity against A549 human NSCLC lung carcinoma cells. The format is functional, cell-based.
Assay [1] concerns CCRF-CEM. Put plainly: Cytotoxic activity against HIV infected T4 lymphocytes (CEM cell line). Format: functional, cell-based. The following applies: Homo sapiens.
In a further assay the test system is MCF7. Put plainly: In vitro antitumor activity against MCF-7 human breast adenocarcinoma cells. The format is functional, cell-based.
Another assay concerns L1210. As to the kind of experiment: In vitro antitumor activity against L1210 murine lymphocytic leukemia cells. Format: functional, cell-based. The following applies: Mus musculus.
Another assay concerns PSN1. As to the kind of experiment: In vitro antitumor activity against PSN-1 human pancreatic carcinoma cells. Format: functional, cell-based.
The test system of another assay is HT-29. Put plainly: In vitro antitumor activity against HT-29 human colon adenocarcinoma cells. The format is functional, cell-based.
Assay [2] deals with CCRF-CEM. As to the kind of experiment: Antitumor activity against HIV infected T4 lymphocytes (CEM cell line) at 0.4 uM concentration. Format: functional, Homo sapiens.
Assay [3] relates to CCRF-CEM. As to the kind of experiment: Cytotoxic activity against HIV uninfected T4 lymphocytes (CEM cell line). Format: functional, cell-based. As to conditions: Homo sapiens.

The record followed here is ChEMBL document CHEMBL1128880, “Design and synthesis of heterocyclic analogues of mycophenolic acid as potential chemotherapeutic agents” (Bioorg Med Chem Lett, 1995).

In general, IC50 refers to the concentration that gives 50% inhibition. High values mean weaker potency, low ones greater potency. On to `C/C(=C\Cc1ccc(C(N)=O)[nH]1)CCC(=O)O`, for which the IC50 in the assay with A549 is above 100 µM; in the assay on CCRF-CEM [1], 730 µM; in the assay with MCF7 it was above 100 µM; in the assay on L1210, above 100 µM; in the assay on PSN1, above 100 µM; in the assay on HT-29 it was above 100 µM.

With `C/C(=C\Cc1nc(C(N)=O)cs1)CCC(=O)O`, the 50% inhibitory concentration (IC50) in the assay with A549, in the assay with MCF7, in the assay on L1210, in the assay on PSN1 and in the assay with HT-29 was above 100 µM throughout.

Take `C/C(=C\Cn1cnc2c(O)ncnc21)CCC(=O)O`: the 50% inhibitory concentration (IC50) with A549, with MCF7, in the assay with L1210, with PSN1 and in the assay on HT-29 was above 100 µM in each case.

Take `C/C(=C\Cn1cnc2c(Cl)ncnc21)CCC(=O)O`: the IC50 with A549, in the assay on MCF7, with L1210, in the assay with PSN1 and in the assay on HT-29 was above 100 µM each time.

Take `C/C(=C\Cn1cnc(C(N)=O)n1)CCC(=O)O`: the concentration for half-maximal inhibition (IC50) in the assay on A549, in the assay with MCF7, in the assay on L1210, with PSN1 and in the assay on HT-29 was above 100 µM throughout.

As to `COC(=O)c1ccc(C/C=C(\C)CCC(=O)O)[nH]1`, the half-inhibitory concentration (IC50) was above 100 µM with A549; 360 µM in the assay on CCRF-CEM [1]; above 100 µM in the assay on MCF7; above 100 µM with L1210; above 100 µM with PSN1; above 100 µM in the assay on HT-29.

`C/C(=C\Cn1cnc(C(=O)O)n1)CCC(=O)O`: the IC50 with A549, in the assay on MCF7, with L1210, with PSN1 and in the assay with HT-29 was above 100 µM in each case.

Consider `C/C(=C\Cc1cccc(C(N)=O)n1)CCC(=O)O`, for which the IC50 with A549, with MCF7, in the assay with L1210, in the assay with PSN1 and in the assay with HT-29 was above 100 µM in each case.

`COc1c(C)c2c(c(O)c1C/C=C(\C)CCC(=O)O)C(=O)OC2` [MYCOPHENOLIC ACID] came in with a Protection in the assay with CCRF-CEM [2] of 20%. Besides, the IC50 is 0.4 µM in the assay with A549; 0.5 µM in the assay on MCF7; below 0.2 µM with L1210; 0.9 µM with CCRF-CEM [3]; 0.7 µM in the assay with PSN1; 0.9 µM in the assay on HT-29.
